Experimental data published in patent US20240059740A1, “CYCLIC PEPTIDES AND USES THEREOF” (PRE[…] INC., priority 2020, published 2024).
Residues, ends and D or L forms follow the SMILES beside them.

How the values were obtained:
Assay type in all cases: cell-based, human
uPA (PLAU) mRNA = assay: Real time RT-PCR, uPA mRNA expression
Description: The real-time reverse transcription polymerase chain reaction (RT-PCR) uses fluorescent reporter molecules to monitor the production of amplification products during each cycle of the PCR reaction. This combines the nucleic acid amplification and detection steps into one homogeneous assay and use of appropriate chemistries and data analysis eliminates the need for Southern blotting or DNA sequencing for amplicon identification. Its simplicity, specificity and sensitivity, together with its potential for high throughput and the ongoing introduction of new chemistries, more reliable instrumentation and improved protocols, has made real-time RT-PCR the benchmark technology for the detection and/or comparison of RNA levels.’
In order to detect and quantify the expression of specific genes at mRNA level, real-time reverse transcriptase polymerase chain reaction (Real time RT-PCR) was performed. Total RNA of samples was isolated and purified using the PureLink® RNA Mini Kit (Life technologies). The concentration of total RNA was detected by NanoDrop 2000 Spectrophotometer (Thermo Scientific). The total RNA (2000 ng) was reverse transcribed using the High-Capacity cDNA Reverse Transcription Kit (Applied Biosystems™).
The primers of target genes were TaqMan™ Gene Expression Assay for human PLAU (Hs01547054_m1), MMP-2 (Hs01548727_m1), MMP-9 (Hs00957562_m1), Snail-1 (Hs00195591_m1), Snail-2 (Hs00161904_m1), N-cadherin (Hs00983056_m1) and Twist (Hs01675818_s1). Relative quantification was done by reference to 18S ribosomal RNA (18S rRNA) and analysed using the comparative critical threshold (Ct) method
The mRNA expression of MMPs was measured using qRT-PCR. This was tested three independent times; the results are shown in Tables 9, 10 and 11 for U251, U87 cells and O81024 cells respectively. Results are reported as percent of the control cells (no treatment). Both MMP-2 and uPA were decreased in U251 by SEQ ID NO.1.

081024 cells = assay: MTT assay for cytotoxicity, 081024 oncospheres; conditions: % viability of control
Description: The MTT (3-[4.5-dimethylthiazol-2-yl]-2,5═diphenyl tetrazolium bromide) assay is based on a process undertaken by living cells, involving the conversion of MTT into formazan crystals. This assay is used routinely to measure the in vitro cytotoxic effects of drugs on cell lines or primary patient cells (Van Meerloo et al., 2011). The MTT assay measures mitochondrial activity, so in some instances where the peptide activates mitochondrial response, the results appear to increase the number of cells present i.e. >100% cell viability.
The aim of this experiment was to identify peptide concentrations that are active on living cells and cell viability was assessed.
The glioblastoma multiforme (GBM) cell lines used were U87 and U251 cells and patient derived cells grown as oncospheres (081024 cells). Human adherent GBM cell lines U87 and U251 were cultured in RPMI medium (Life Technologies Melbourne Australia) supplemented with 5% v/v FBS, 100 U/mL penicillin and 100 μg/mL streptomycin. 081024 cells were cultrured in NeuroCult™ NS-A Proliferation medium with 0.2% (v/v) heparin, 20 ng/mL EGF and 10 ng/mL FGF.
8×10^3 U87 and 7×10^3 U251 cells per well were seeded in 96 well plates in 200 μL serum-containing RPMI medium and incubated at 37° C. with 5% CO2 for 24 hours. After one wash with serum-free medium, 100 μL serum-free medium with different concentration of peptide SEQ ID NO:1 was added to each well. After 48 hours incubation, 10 μL of 0.5 mg/mL MTT was added and incubated for 2 hours at 37° C. Formazan crystals were dissolved by 200 μL/well dimethyl sulfoxide (DMSO) and shaking for 15 minutes. The UV absorbance was read with an iMark™ microplate absorbance reader at 595 nm (Bio-Rad Laboratories). Background absorbance was subtracted and results expressed as the % viability of control (untreated cells).

uPA = assay: Casein-plasminogen zymography of conditioned media, uPA production; conditions: for uPA production: compared to control containing no peptide
Description: To assess whether the peptide SEQ ID NO.1 impacted MMP-2, MMP-9 and uPA production Zymography was used.
Zymography is a technique for studying hydrolytic enzymes on the basis of substrate degradation. The in-gel zymography hydrolytic enzymes are separated by their molecular weights and detected by their ability to degrade a substrate. To detect the activity of MMP-2 and MMP-9 in various cell lines, conditioned media were collected in 3 independent experiments and analysed by gelatin zymography to quantify the level of gelatin digestion, which reflects MMP-2 and MMP-9 activity and production. Casein-Plasminogen zymography was conducted to determine the activity level of uPA in the conditioned medium from various cell lines. Active uPA converts plasminogen into plasmin which then digests casein, thus clear bands where digestion of casein have occurred indirectly represent uPA activity.
The effect of the peptides on matrix protease production was tested using in-gel zymography. If the substrate included in the gel is gelatin, the enzymes detected are gelatinases: MMP-2 and MMP-9 (the latter is often of low abundance). If the gel contains casein and plasminogen, the enzymes tested are urokinase plasminogen activators (uPA); uPA is a therapeutic target in GBM.
An equal amount of protein from each sample was mixed with 5 μL of Laemmli buffer (0.01% Bromophenol Blue (W/V), 5% SDS (W/V), 22% glycerol (V/V), 14% 0.5 M Tris pH 6.8 (V/V)) and loaded onto a 10% polyacrylamide gel co-polymerized with 1 mg/ml of gelatin, and electrophoresed at 120 V for 2 hours on ice. The gel was incubated in […] solution (Triton X-100 2.5% (V/V), 1 M Tris pH 7.5 5% (V/V), 0.5 M CaCl2 1% (W/V) at room temperature overnight on an orbital shaker. The gel was incubated in a second solution for 3 hours at 37° C. The gel was then stained with Coomassie blue solution (Coomassie blue 0.25%, methanol 45%, acetic acid 10%) and destained in methanol 25% (V/V), acetic acid 10% (V/V) destaining solution until clear bands against the dark background appeared around 72 kDa and 95 kDa, representing MMP-2 and MMP-9 activity, respectively. Clear bands around 50 kDa appeared against the dark background representing uPA activity. The gels were scanned, and uPA, MMP-2 and MMP-9 were quantified by densitometry using NIH Image J software.
SEQ ID NO.1 was compared to a control containing no peptide to evaluate whether the peptide can reduce the production of matrix proteinases. […] This could be confirmed using a MMP-9 quantification kit, and altered production by a transcriptional mechanism can be unveiled using qRT-PCR.

CC(C)C[C@@H]1NC(=O)[C@H](C)NC(=O)[C@@H](NC(=O)[C@@H]2CCCN2C(=O)[C@@H](N)CC(C)C)CSSC(C)(C)CNC(=O)CC[C@@H](C(=O)N[C@@H](CCCNC(=N)N)C(N)=O)NC(=O)[C@H](CC(=O)O)NC(=O)[C@H](CC(N)=O)NC1=O [SEQ ID NO: 1, Leu-Pro-c(SSA*-Ala-Leu-Asn-Asp-Glu)-Arg-NH2] (HELM PEPTIDE1{L.P.C.A.L.N.D.E.R.[am]}|CHEM1{[CC(C)(CN[*:2])S[*:1]]}$PEPTIDE1,CHEM1,3:R3-1:R1|PEPTIDE1,CHEM1,8:R3-1:R2$$$V2.0; N-terminus assumed) was tested, and the “mRNA expression, uPA” value (uPA (PLAU) mRNA; 081024 cells, baseline expression level = 1) was 0.85, the “mRNA expression, uPA” value (uPA (PLAU) mRNA; U87 cells, baseline expression level = 1) was 1.19 and the “mRNA expression, uPA” value (uPA (PLAU) mRNA; U251 cells, relative to control (no treatment), 18S rRNA reference, listed as SEQ ID NO. 1) was 0.63. The “mRNA expression, uPA” value (uPA (PLAU) mRNA; U251 cells, relative to control (no treatment), 18S rRNA reference, listed as SEQ ID NO.1) was “decreased”, the Cell viability (081024 cells; 1 μM) was 104.2% and the Cell viability (081024 cells; 5 μM) was 106.8%. The Cell viability (081024 cells; 10 μM) was 106.7%, the Cell viability (081024 cells; 50 μM) was 106.5% and the Cell viability (081024 cells; 100 μM) was 106.9%. It also gave a Cell viability (081024 cells; 500 μM) of 99.68%, a Cell viability (081024 cells; 1 mM) of 89.58% and a uPA production (uPA; 081024 cells) of 96.43 ± 16.6. The uPA production (uPA; U87 cells) was 89.03 ± 5.98, the uPA production (uPA; U251 cells) was 79.92 ± 8.86 and the “production of uPA (overall, in words)” value (uPA; overall, all cell lines, cell-conditioned media) was “did not decrease”.
